# “Also recorded” adds a separate entry of the source. Where two headings read alike, the source gives them in different places.
# How the values were obtained:
# [1] = test system: panel of human leukemia cell lines; assay: Cell Titer Glo cell viability assay, 48 h, statements across the whole panel; conditions: for cytotoxicity to leukemia cell lines: 12 leukemia cell lines
# Procedure: The activity of the kinase inhibitor collection against a panel of human leukemia cell lines was determined in cell viability assays run over 48 h using the Cell Titer Glo reagent.
# Figure 1 Effects of kinase inhibition on the proliferation of leukemia cells A. Human leukemia cell lines were treated with duplicate serial dilutions of kinase inhibitors and the effect on cell viability was determined by Cell Titer Glo assay after 48 hours. Data shown represents the mean IC50 of each condition from 2 independent experiments. HL-60 cells were treated with serial dilutions of mTor/PI3K B. and MEK C. inhibitors and the effect on cell viability was determined after 48 hours. Data shown is the mean ± SEM of 3 independent experiments.
# Leukemia and lymphoma cell lines were grown in RPMI containing 10% FCS. […] Cell lines are routinely tested for mycoplasma and genotyped by short tandem repeating (STR) profiling to confirm identity.
# Compounds were obtained from SynMedChem and dissolved at […] in DMSO. Serial 2-fold dilutions of each compound were prepared in DMSO using a liquid handling robot (Janus, Perkin Elmer). Each dilution (100nL) was transferred to duplicate tissue culture plates containing 50 μL of media containing 5 × 10^3 cells using a 384 well pin tool. Cells were incubated for 48 h and cell viability was determined using Cell Titer Glow reagents as described by the manufacturer (Promega). Data was acquired using a luminescent plate reader (Envision, Perkin Elmer) and analysed using Activity Base (IDBS, Guilford, UK) and visualised using Spotfire (TIBCO, Palo Alto, CA) as described previously. Each cell line was assayed in independent experiments on at least two occasions. […] Serial 2-fold dilutions of each compound were prepared in media containing 0.2% DMSO and 50 μl of each dilution was added to 10^4 cells in 50 μl of media. Cells were incubated for 48 h and cell viability was determined using Cell Titer Glow assay as described above.
# [2] = test system: human peripheral blood neutrophils; assay: Human neutrophil viability by propidium iodide exclusion, flow cytometry; conditions: for sensitivity of human neutrophils at 1μM: 18 h; for sensitivity of human neutrophils: G-CSF or GM-CSF primed 1 h, treated 18 h, dose range
# Procedure: Figure 3 Assessment of human neutrophil viability in response to kinase inhibitor treatment Human peripheral blood neutrophils from three healthy donors were primed with G-CSF or GM-CSF for 1 hour before addition of selected kinase inhibitors (as shown) or DMSO (control) at concentrations as indicated. Neutrophil viability was assessed after 18 hours of treatment, by propidium iodide exclusion measured by flow cytometry. Mean ± SEM shown.
# Donors were 18 years of age or older and had not taken anti-inflammatory medications during the 2 weeks before donating. […] Human neutrophils were then isolated on a three-layer Percoll gradient as described for mouse bone marrow neutrophils as described. […] Neutrophils were resuspended in DMEM/10%FBS, and primed with 10 ng/mL recombinant human G-CSF (Amgen) or 10 ng/mL recombinant human GM-CSF (Leukine, Sargramostim) for 1 h. Compounds or DMSO carrier were added for […]. Viability was assessed by staining neutrophils with propidium iodide and analyzing on a BD Fortessa.
# [3] = test system: primary murine bone-marrow neutrophils; assay: Live cell imaging viability of primary bone-marrow neutrophils; conditions: for effect on mouse neutrophil viability (words): G-CSF- or GM-CSF-primed, inhibitors at 1 μM, over 24 hours; for effect of chemotherapeutics on neutrophil viability: GM-CSF-primed, dose-dependent, Figure 5D
# Source text: Using a high-throughput live cell imaging approach reported previously [15], we examined the effect of the kinase inhibitors on the viability of bone marrow neutrophils to determine their potential to cause neutropenia (Figure 2). Because G-CSF and GM-CSF are dominant regulators of granulopoiesis and neutrophil survival, and are commonly used in a clinical setting to mobilize hematopoietic stem cells into the blood and increase neutrophil production [27–31], we treated cells with these cytokines immediately prior to drug exposure. The addition of either cytokine prevents constitutive neutrophil apoptosis thereby increasing the window for detection of changes in viability induced by drug treatments.
# For all above, data represent mean ± SEM from three independent samples.
# Mouse bone marrow neutrophils were prepared as described [15]. Neutrophils were resuspended in phenol red-free DMEM/10% FBS for imaging studies. The purity of neutrophil preparations was routinely 96% ± 4% (Mean ± SD, n = 50) as assessed by cytology following May-Grünwald/Giemsa staining.
# Kinase inhibitors were purchased from SYN kinase (Melbourne, Australia) and were used at 1 μM, unless otherwise specified, with dilutions performed in assay buffer containing 0.1% DMSO.
# Viability was monitored using 2 μg/mL PI (Sigma). Images were captured every 30-60 min by the Zeiss Axiovert 200M Microscope at 37 °C/10% CO2. Quantitative analysis was performed using a custom-scripted MetaMorph (Molecular Devices) journal suite incorporating the count nuclei function, reconstruction & subtraction functions and Integrated Morphometry Analysis to select and analyze cells of interest.
# [4] = test system: OCI-AML3; assay: Cell Titer Glo cell viability assay, 48 h; assay type: cell-based, human; conditions: 48 h, mean of 2 independent experiments, 0 = less than 10 nM, cell line not given, read-out: IC50 of inhibitors on cell lines, m (mean)
# How it was run: (§1)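 5 × 10^3 cells/well, RPMI/10% FCS; 2-fold serial dilutions, duplicate; 48 h; Cell Titer Glo luminescence.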
# [5] = test system: MV4;11; assay: Cell Titer Glo cell viability assay, 48 h; assay type: cell-based, human; conditions: 48 h, mean of 2 independent experiments, 0 = less than 10 nM, cell line not given, read-out: IC50 of inhibitors on cell lines, m (mean)
# How it was run: as §1
# [6] = test system: K562; assay: Cell Titer Glo cell viability assay, 48 h; assay type: cell-based, human; conditions: 48 h, mean of 2 independent experiments, 0 = less than 10 nM, cell line not given, read-out: IC50 of inhibitors on cell lines, m (mean)
# How it was run: as §1
# [7] = test system: MOLT4; assay: Cell Titer Glo cell viability assay, 48 h; assay type: cell-based, human; conditions: 48 h, mean of 2 independent experiments, 0 = less than 10 nM, cell line not given, read-out: IC50 of inhibitors on cell lines, m (mean)
# How it was run: as §1
# [8] = test system: KU-812; assay: Cell Titer Glo cell viability assay, 48 h; assay type: cell-based, human; conditions: 48 h, mean of 2 independent experiments, 0 = less than 10 nM, cell line not given, read-out: IC50 of inhibitors on cell lines, m (mean)
# How it was run: as §1
# [9] = test system: JURKAT; assay: Cell Titer Glo cell viability assay, 48 h; assay type: cell-based, human; conditions: 48 h, mean of 2 independent experiments, 0 = less than 10 nM, cell line not given, read-out: IC50 of inhibitors on cell lines, m (mean)
# How it was run: as §1
# [10] = test system: HL-60; assay: Cell Titer Glo cell viability assay, 48 h; assay type: cell-based, human; conditions: 48 h, mean of 2 independent experiments, 0 = less than 10 nM, cell line not given, read-out: IC50 of inhibitors on cell lines, m (mean)
# How it was run: as §1
# [11] = test system: U937; assay: Cell Titer Glo cell viability assay, 48 h; assay type: cell-based, human; conditions: 48 h, mean of 2 independent experiments, 0 = less than 10 nM, cell line not given, read-out: IC50 of inhibitors on cell lines, m (mean)
# How it was run: as §1
# [12] = test system: HEL.92.1.7; assay: Cell Titer Glo cell viability assay, 48 h; assay type: cell-based, human; conditions: 48 h, mean of 2 independent experiments, 0 = less than 10 nM, cell line not given, read-out: IC50 of inhibitors on cell lines, m (mean)
# How it was run: as §1
# [13] = test system: THP-1; assay: Cell Titer Glo cell viability assay, 48 h; assay type: cell-based, human; conditions: 48 h, mean of 2 independent experiments, 0 = less than 10 nM, cell line not given, read-out: IC50 of inhibitors on cell lines, m (mean)
# How it was run: as §1
# [14] = test system: MEG-01; assay: Cell Titer Glo cell viability assay, 48 h; assay type: cell-based, human; conditions: 48 h, mean of 2 independent experiments, 0 = less than 10 nM, cell line not given, read-out: IC50 of inhibitors on cell lines, m (mean)
# How it was run: as §1
# [15] = test system: EOL-1; assay: Cell Titer Glo cell viability assay, 48 h; assay type: cell-based, human; conditions: 48 h, mean of 2 independent experiments, 0 = less than 10 nM, cell line not given, read-out: IC50 of inhibitors on cell lines, m (mean)
# How it was run: as §1
# [16] = test system: primary murine myeloid HPCs (lin-c-Kit+Sca-1- cells); assay: Live cell imaging viability of hematopoietic myeloid progenitor cells
# Source text: (C & D) Dose-dependent effects of common chemotherapeutics on GM-CSF-primed primary murine myeloid HPCs C. or GM-CSF-primed primary murine bone-marrow neutrophils D. as assessed by live cell imaging analysis (concentrations as marked). E. Comparison of G-CSF (red/orange) or GM-CSF (blue) priming of myeloid HPCs before treatment with chemotherapeutics as assessed by live cell imaging (concentrations as marked). […] Mean ± SEM with n = 3 independent samples. * p < 0.05.
# For purification of myeloid progenitor cells, bone marrow cells were collected in DMEM/10% FCS. After red cell lysis, cells were stained with biotin-conjugated antibodies against Ter119, Gr-1, Mac-1, B220, CD4, CD8 and IL-7Rα and incubated with streptavidin-microbeads (Miltenyi Biotech). Lineage positive cells were depleted by magnetic separation using MACS LS columns and QuadroMACS^TM separator magnets (Miltenyi Biotech). Hematopoietic myeloid progenitor cells that were propidium iodide (PI) negative, lineage-negative, Sca-1 negative and c-Kit positive, were sorted and collected by flow cytometry on a FACSAria or Diva (BD Biosciences). For imaging studies, cells were resuspended in StemPro-34 SFM (Invitrogen). Cells were cultured in 10 ng/mL human G-CSF (Neupogen, Amgen), 10 ng/mL recombinant mouse GM-CSF or 10 ng/mL recombinant human GM-CSF.
# The MetaMorph script is available upon request.
# [17] = cited from earlier work
# [18] = Homo sapiens, read-out: IC50 across most of the cell lines examined
structure (smiles),measurement,setting,value
CC[C@@H]1C(=O)N(C)c2cnc(Nc3ccc(C(=O)NC4CCN(C)CC4)cc3OC)nc2N1C1CCCC1 [(R)-BI-2536],cytotoxicity to leukemia cell lines,[1],potently cytotoxic to all lines examined
same,IC50,"[1]; Homo sapiens, read-out: IC50 across all cell lines examined",< 0.3 µM
same,IC50,[1]; [18],≤ 0.01 µM
same,sensitivity of human neutrophils at 1μM,[2],not sensitive
same,sensitivity of human neutrophils,[2],sensitive
NC(=O)Nc1cc(-c2cccc(F)c2)sc1C(=O)N[C@H]1CCCNC1 [AZD7762],cytotoxicity to leukemia cell lines,[1],potently cytotoxic to all lines examined
same,IC50,[1]; [18],≤ 0.01 µM
same,sensitivity of human neutrophils at 1μM,[2],not sensitive
same,sensitivity of human neutrophils,[2],sensitive
Cn1c(=O)n(-c2ccc(C(C)(C)C#N)cc2)c2c3cc(-c4cnc5ccccc5c4)ccc3ncc21 [BEZ-235],cytotoxicity to leukemia cell lines,[1],potently cytotoxic to all lines examined
same,IC50,[1]; [18],≤ 0.01 µM
same,sensitivity of human neutrophils at 1μM,[2],not sensitive
same,sensitivity of human neutrophils,[2],sensitive
same,effect on mouse neutrophil viability (words),[3],minimal impact
Oc1cccc(-c2nc(N3CCOCC3)c3oc4ncccc4c3n2)c1 [PI103],effect on mouse neutrophil viability (words),[3],some neutrophil toxicity
same,IC50,"[4]; Homo sapiens, OCI-AML-3",0.16 µM
same,IC50,[5]; Homo sapiens,0.2 µM
same,IC50,[6]; Homo sapiens,2.29 µM
same,IC50,"[7]; Homo sapiens, MOLT-4",0.21 µM
same,IC50,"[8]; Homo sapiens, KU812",3.35 µM
same,IC50,[9]; Homo sapiens,0.96 µM
same,IC50,[10]; Homo sapiens,0.29 µM
same,IC50,"[11]; Homo sapiens, U-937",0.26 µM
same,IC50,[12]; Homo sapiens,1.89 µM
same,IC50,[13]; Homo sapiens,0.88 µM
same,IC50,[14]; Homo sapiens,1.52 µM
same,IC50,"[15]; Homo sapiens, EOL1",0.22 µM
Cc1ccc([N+](=O)[O-])cc1S(=O)(=O)N(C)/N=C/c1cnc2ccc(Br)cn12 [PIK-75],cytotoxicity to leukemia cell lines,[1],potently cytotoxic to all lines examined
same,IC50,"[1]; read-out: IC50 across most of the cell lines examined, Cell Titer Glo, most of 12 leukemia lines",≤ 0.01 µM
same,effect of kinase inhibitors on HPC viability,"[16]; G-CSF- or GM-CSF-primed, 1 μM, over 24 hours",active against both G-CSF- and GM-CSF-treated HPC
same,sensitivity of human neutrophils,[2],sensitive
same,EC50,"[3]; read-out: EC50 neutrophil viability, Mcl-1+/-, Mcl-1+/- neutrophils, 12 hour time-point",0.057 µM
same,EC50,"[3]; read-out: EC50 neutrophil viability, wild-type, WT neutrophils, 12 hour time-point",0.228 µM
same,IC50,[4],0.1 µM
same,IC50,[5],0.01 µM
same,IC50,[6],0.33 µM
same,IC50,[7],0.13 µM
same,IC50,[8],0.14 µM
same,IC50,[9],0.09 µM
same,IC50,[10],0.06 µM
same,IC50,[11],0.06 µM
same,IC50,[12],0.08 µM
same,IC50,[13],0.1 µM
same,IC50,[14],0.29 µM
same,IC50,[15],0.04 µM
CC(C)(C)c1cnc(CSc2cnc(NC(=O)C3CCNCC3)s2)o1 [SNS-032],dose-limiting side-effect in patients,[17]; patients with chronic lymphocytic leukemia and multiple myeloma,neutropenia as the dose-limiting side-effect
same,sensitivity of human neutrophils,[2],sensitive
same,effect on mouse neutrophil viability (words),[3],induced rapid cell death; also recorded: significant impact on neutrophil viability
same,EC50,"[3]; Mus musculus, Neutrophil, 12 h, read-out: EC50 neutrophil viability, Bak-/- Bax deficient",> 1 µM
same,EC50,"[3]; Mus musculus, Neutrophil, 12 h, read-out: EC50 neutrophil viability, Mcl-1+/-",0.08 µM
same,EC50,"[3]; Mus musculus, Neutrophil, 12 h, read-out: EC50 neutrophil viability, wild-type",0.182 µM
same,EC50,"[3]; Mus musculus, Neutrophil, read-out: EC50 neutrophil viability, G-CSF primed",0.194 µM
same,EC50,"[3]; Mus musculus, Neutrophil, read-out: EC50 neutrophil viability, GM-CSF primed",0.218 µM
same,IC50,"[4]; Homo sapiens, OCI-AML-3",0.19 µM
same,IC50,[5]; Homo sapiens,0.15 µM
same,IC50,[6]; Homo sapiens,0.72 µM
same,IC50,"[7]; Homo sapiens, MOLT-4",0.29 µM
same,IC50,"[8]; Homo sapiens, KU812",0.61 µM
same,IC50,[9]; Homo sapiens,0.16 µM
same,IC50,[10]; Homo sapiens,0.1 µM
same,IC50,"[11]; Homo sapiens, U-937",0.07 µM
same,IC50,[12]; Homo sapiens,1.33 µM
same,IC50,[13]; Homo sapiens,0.14 µM
same,IC50,[14]; Homo sapiens,0.58 µM
same,IC50,"[15]; Homo sapiens, EOL1",0.09 µM
Cc1cnc(Nc2ccc(OCCN3CCCC3)cc2)nc1Nc1cccc(S(=O)(=O)NC(C)(C)C)c1 [TG-101348],effect on mouse neutrophil viability (words),[3],cytotoxicity
N.N.O=C([O-])C1(C(=O)[O-])CCC1.[Pt+2] [carboplatin],neutropenia in the clinic,[17],induce neutropenia in the clinic
same,effect of chemotherapeutics on HPC viability,"[16]; GM-CSF-primed, dose-dependent, Figure 5C",no effects
same,effect of chemotherapeutics on neutrophil viability,[3],no effects
CC(=O)O[C@@]12CO[C@@H]1C[C@H](O)[C@@]1(C)C(=O)[C@H](O)C3=C(C)[C@@H](OC(=O)[C@H](O)[C@@H](NC(=O)OC(C)(C)C)c4ccccc4)C[C@@](O)([C@@H](OC(=O)c4ccccc4)[C@H]21)C3(C)C [docetaxel],neutropenia in the clinic,[17],induce neutropenia in the clinic
same,effect of chemotherapeutics on HPC viability,[16],no effects
same,effect of chemotherapeutics on neutrophil viability,[3],no effects
